Consider 16 molecules from article PMC10992144, “Construction of fatty acid derivatives from rubber seed oil as α-glucosidase inhibitors based on rubber seed oil” (Bioresources and Bioprocessing, 2022).

SMILES strings stand for the structures. Where two headings read alike, the source gives them in different places.

The IC50 is the point on the concentration scale where inhibition reaches its midpoint.

Test [1] has as its target T1, α-Glucosidase from recombinant yeast (Saccharomyces cerevisiae, UniProt P53341).
T1 construct: purchased Shanghai yuanye Bio-Technology Co. Ltd; host or cells: recombinant yeast
In words: biochemical. The class given is biochemical. Conditions: for Inhibitory score: 1/IC50, Table 4, S4. The procedure: Fatty acids and their derivates were diluted in 0.1 M, pH = 6.9 phosphate buffer with 0.5% (v/v) DMSO as cosolvent, to prepare […] sample solutions. 50 μL sample solution and 100 μL 0.5 U α-glucosidase (prepared in the same phosphate buffer) were added into 1.5-mL plastic tubes, incubated at 37 °C, 10 min. Then, 50 μL 5 mM α-PNPG (prepared in the same buffer) was added into the plastic tube, incubated for another 10 min at 37 °C. At the end, 1 M Na2CO3 was added to terminate the reaction.
The Inhibitory score measures the inhibitory intensity of each sample on α-glucosidase, calculated by 1/IC50. Data were subjected to the one-way ANOVA analysis by SPSS 23.0, shown as mean ± SD (n = 3).

Test [2] deals with α-glucosidase. Conditions: result in words; ref Paul et al. ([2010]); cited from earlier work.
The mark [3] stands for this setting: 0.1 M phosphate buffer pH 6.9, 0.5% DMSO, 37 °C, α-PNPG, mean ± SD (n = 3), read-out: IC50.

T1 sequence (P53341 whole entry): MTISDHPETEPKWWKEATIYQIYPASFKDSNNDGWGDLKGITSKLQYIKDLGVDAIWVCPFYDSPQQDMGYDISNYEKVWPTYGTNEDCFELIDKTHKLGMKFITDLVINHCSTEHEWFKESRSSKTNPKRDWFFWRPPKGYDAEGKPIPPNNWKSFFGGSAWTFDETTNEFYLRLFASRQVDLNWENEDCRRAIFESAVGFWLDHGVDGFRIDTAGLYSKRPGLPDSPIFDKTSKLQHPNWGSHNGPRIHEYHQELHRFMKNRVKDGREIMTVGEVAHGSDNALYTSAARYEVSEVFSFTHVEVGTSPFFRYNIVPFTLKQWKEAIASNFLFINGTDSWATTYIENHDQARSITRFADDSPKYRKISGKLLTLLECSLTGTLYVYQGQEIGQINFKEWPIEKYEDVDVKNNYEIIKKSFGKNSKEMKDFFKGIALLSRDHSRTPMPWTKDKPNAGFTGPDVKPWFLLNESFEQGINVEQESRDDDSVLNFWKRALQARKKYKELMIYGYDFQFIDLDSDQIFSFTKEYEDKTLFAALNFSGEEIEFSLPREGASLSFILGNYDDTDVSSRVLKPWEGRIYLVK

As to `CCCCC/C=C\CC(O)CCCCCCCCC(=O)O` (stereo not drawn) [10-HOA, 10-hydroxy-cis-12-octadecenoic acid], in test [1], the IC50 was 390 ± 10 nM and the Inhibitory score is 2.58.

As for `CCCCCCCCC(O)CCCCCCCCC(=O)O` (stereo not shown) [10-HSA, 10-hydroxystearic acid], in test [1] (setting [3]), the IC50 was 1710 ± 20 nM. Moreover, the Inhibitory score in test [1] is 0.58.

Regarding `CCCCCCCCC(O)/C=C/CCCCCCC(=O)O` (stereo not shown) [10-hydroxy-8 (E)-octadecenoic acid], the “inhibition of α-glucosidase” value in test [2] is recorded as “useful inhibitor”.

Turning to `CCCCCCCC/C=C\CCCCCCCC(=O)OCCCC` [Butyl, butyl oleate], the IC50 in test [1] (setting [3]) is 2340 ± 110 nM. Besides, the Inhibitory score in test [1] stood at 0.43.

As for `CCCCCCCCCC(=O)O` [C10:0, capric acid], the half-inhibitory concentration (IC50) in test [1] (setting [3]) amounted to 114000 ± 2370 nM.

Regarding `CCCCCCCCCCCC(=O)O` [C12:0, lauric acid], the concentration for half-maximal inhibition (IC50) in test [1] (setting [3]) was found to be 135000 ± 6430 nM.

Turning to `CCCCCCCCCCCCCC(=O)O` [C14:0, myristic acid], the IC50 in test [1] (setting [3]) was 56200 ± 2810 nM.

On to `CCCCCCCCCCCCCCCC(=O)O` [C16:0, palmitic acid], for which the half-inhibitory concentration (IC50) in test [1] (setting [3]) amounted to 13970 ± 10 nM.

For `CCCCC/C=C\C/C=C\CCCCCCCC(=O)O` [C18:2, linoleic acid], in test [1], the 50% inhibitory concentration (IC50) came out at 600 ± 10 nM.

For the molecule `CC/C=C\C/C=C\C/C=C\CCCCCCCC(=O)O` [C18:3, α-linolenic acid], in test [1], the IC50 was 540 ± 10 nM.

As for `CCCCCCCC/C=C\CCCCCCCC(=O)OCCCCCC` [Hexyl, hexyl oleate], the IC50 in test [1] (setting [3]) was found to be 4160 ± 210 nM. Moreover, the Inhibitory score in test [1] is 0.24.

Take `CCCCCCCC/C=C\CCCCCCCC(=O)OC(C)C` [Isopropyl, isopropyl oleate]: the concentration for half-maximal inhibition (IC50) in test [1] (setting [3]) is 600 ± 10 nM. For the same molecule, the Inhibitory score in test [1] was found to be 1.67.

For the molecule `CCCCCCCC/C=C\CCCCCCCC(=O)OCCCCCCCC` [Octyl, octyl oleate], the half-maximal inhibitory concentration (IC50) in test [1] (setting [3]) turned out to be 3250 ± 80 nM. In addition, the Inhibitory score in test [1] is reported as 0.31.

For the molecule `CCCCCCCC/C=C\CCCCCCCC(=O)OCCCCC` [Pentyl, amyl oleate], the IC50 in test [1] (setting [3]) worked out at 3210 ± 170 nM. Further, the Inhibitory score in test [1] is 0.31.

Regarding `CCCCCCCC/C=C\CCCCCCCC(=O)OCCC` [Propyl, propyl oleate], the 50% inhibitory concentration (IC50) in test [1] (setting [3]) turned out to be 1750 ± 40 nM. In addition, the Inhibitory score in test [1] was 0.57.

With `CCCCCCCC/C=C\CCCCCCCC(=O)O` [cis-C18:1, Oleic acid], the IC50 in test [1] (setting [3]) stood at 810 ± 40 nM. Besides, the Inhibitory score in test [1] (listed as OA) came out at 1.23.
